According to publication PMC12491383, “Organ and tumour dosimetry of ^177Lu-rhPSMA-10.1, a novel PSMA-targeted therapy: results from a Phase I trial” (European Journal of Nuclear Medicine and Molecular Imaging, 2025):
Several values for one entry are separate records, joined by “and”; a condition that tells them apart may be missing. Identical values can stand only once.

Columns and labels:
[1] = Image-based effective and biological half-lives (mono-exponential fit to washout phase); assay type: in vivo, human; settings: all cycles; for Biological Half-life, Tumours / Effective Half-life, Tumours: anatomy-based method
Description: (§1) Multi-bed single-photon emission computed tomography (SPECT)/CT was conducted at 3-, 24-, 48- and 168-hours post-^177Lu-rhPSMA-10.1 administration in each treatment cycle for the estimation of organ and tumour absorbed doses in each patient. Prior to commencement of the study, each investigating site was required to complete a calibration of their dose calibrator and SPECT/CT system to ensure harmonised quantification of the imaging data. Quantitative reconstructions and all dosimetry analyses were carried out centrally by an independent dosimetry vendor (Radiopharmaceutical Imaging and Dosimetry LLC, Baltimore, MD).
All continuous data are expressed as the mean (standard deviation [SD]) unless otherwise stated. All blood- and image-based pharmacokinetic analyses were conducted in Python and Excel. Effective half-lives for organs and tumours were calculated using a mono-exponential fit to the washout phase of the time–activity data.
Based on exponential fits to image-derived time–activity washout data in individual tissues (Fig. 5), the biological and effective half-lives of ^177Lu-rhPSMA-10.1 in tumours and normal organs were estimated using the mean data from all patients across all cycles (Supplemental Table S3).
^aTumour half-life values were derived from the anatomy-based method and averaged across all tumours and cycles (n = 137).

[2] = Tumour dosimetry by SPECT/CT, activity-based and anatomy-based tumour selection and delineation; assay type: in vivo, human; settings: for Tumour absorbed dose lower than Cycle 1 value, on average: anatomy-based
Description: as §1
The specific absorbed doses (Gy/GBq) in normal organs and tumours were determined using the Medical Internal Radiation Dose (MIRD) Committee S-value methodology. Individual patient organ masses, determined via CT delineation, were scaled to reflect deviations from reference phantom geometry. Cumulative organ absorbed doses (Gy) were calculated across all treatment cycles. Further details on dosimetry methodology are provided in the supplemental materials and have been reported in accordance with EANM guidance.
Approach one was an activity-based method equivalent to that used in most studies that have evaluated tumour dosimetry with ^177Lu-labelled PSMA RLT [28]. For this method, up to three tumours were selected according to their relative visual uptake on the 168-hour SPECT/CT. Lesion contouring for volume/mass was performed based on a 41% SUVmax threshold on the corresponding PSMA PET/CT. These contours were manually transferred onto the SPECT images, making minor adjustments where necessary to the contour margins accounting for any activity spill out on the SPECT. This is illustrated in Supplemental Figure S1. The second method was anatomy-based, with up to five tumours selected in a blinded fashion on CT according to RECIST v1.1 criteria. Lesion volume and mass were determined via manual contouring on the CT and then directly transferred to the SPECT images. Where a common lesion was selected across both methods, the difference in tumour volume resulting from the two contouring methods was calculated.
For the Cycle 1 tumour dosimetry, 36 lesions (27 bone and 9 lymph nodes) were analysed using the activity-based method, while 51 lesions (39 bone and 12 lymph nodes) were evaluated using the anatomy-based method. […] For each method, the mean tumour dose was determined by averaging the maximum tumour dose across all patients.

What does the source list for CC(C)(C)[Si](F)(c1ccc(C(=O)NC[C@@H](NC(=O)CN2CCN(CC(=O)[O-])CCN(CC(=O)[O-])CCN(CC(=O)[O-])CC2)C(=O)N[C@H](CCCCNC(=O)CCC(=O)NCCC[C@@H](NC(=O)CC[C@H](NC(=O)N[C@@H](CCC(=O)O)C(=O)O)C(=O)O)C(=O)O)C(=O)O)cc1)C(C)(C)C.[177Lu+3] [^177Lu-rhPSMA-10.1]?
Biological Half-life, Kidneys ([1]; Mean of 13 patients): 44.9 hours; Biological Half-life, Salivary Glands ([1]; Mean of 13 patients): 64.6 hours; Effective Half-life, Kidneys ([1]; Mean of 13 patients): 33.7 h; Effective Half-life, Salivary Glands ([1]; Mean of 13 patients): 45.4 h; Biological Half-life, Tumours ([1]; Mean of 13 patients): 338 hours and 337.8 hours; Effective Half-life, Tumours ([1]; Mean of 13 patients): 91.4 h and 91 h; Biological Half-life, Kidneys ([1]; Patient 1): 123.6 hours; Biological Half-life, Salivary Glands ([1]; Patient 1): 120.2 hours; Effective Half-life, Kidneys ([1]; Patient 1): 69.6 h; Effective Half-life, Salivary Glands ([1]; Patient 1): 68.6 h; Biological Half-life, Tumours ([1]; Patient 1): 1692.5 hours; Effective Half-life, Tumours ([1]; Patient 1): 145.8 h; Biological Half-life, Kidneys ([1]; Patient 2): 52.3 hours; Biological Half-life, Salivary Glands ([1]; Patient 2): 54.2 hours; Effective Half-life, Kidneys ([1]; Patient 2): 39.4 h; Effective Half-life, Salivary Glands ([1]; Patient 2): 40.5 h; Biological Half-life, Tumours ([1]; Patient 2): 68.8 hours; Effective Half-life, Tumours ([1]; Patient 2): 48.1 h; Biological Half-life, Kidneys ([1]; Patient 3): 47.5 hours; Biological Half-life, Salivary Glands ([1]; Patient 3): 67.5 hours; Effective Half-life, Kidneys ([1]; Patient 3): 36.6 h; Effective Half-life, Salivary Glands ([1]; Patient 3): 47.4 h; Biological Half-life, Tumours ([1]; Patient 3): 305.1 hours; Effective Half-life, Tumours ([1]; Patient 3): 104.8 h; Biological Half-life, Kidneys ([1]; Patient 4): 35.9 hours; Biological Half-life, Salivary Glands ([1]; Patient 4): 84.7 hours; Effective Half-life, Kidneys ([1]; Patient 4): 29.3 h; Effective Half-life, Salivary Glands ([1]; Patient 4): 55.3 h; Biological Half-life, Tumours ([1]; Patient 4): 124.9 hours; Effective Half-life, Tumours ([1]; Patient 4): 70.1 h; Biological Half-life, Kidneys ([1]; Patient 5): 34.6 hours; Biological Half-life, Salivary Glands ([1]; Patient 5): 54.0 hours; Effective Half-life, Kidneys ([1]; Patient 5): 28.5 h; Effective Half-life, Salivary Glands ([1]; Patient 5): 40.3 h; Biological Half-life, Tumours ([1]; Patient 5): 168.9 hours; Effective Half-life, Tumours ([1]; Patient 5): 82.1 h; Biological Half-life, Kidneys ([1]; Patient 6): 38.7 hours; Biological Half-life, Salivary Glands ([1]; Patient 6): 61.3 hours; Effective Half-life, Kidneys ([1]; Patient 6): 31.2 h; Effective Half-life, Salivary Glands ([1]; Patient 6): 44.3 h; Biological Half-life, Tumours ([1]; Patient 6): 282.5 hours; Effective Half-life, Tumours ([1]; Patient 6): 102.0 h; Biological Half-life, Kidneys ([1]; Patient 7): 33.9 hours; Biological Half-life, Salivary Glands ([1]; Patient 7): 57.1 hours; Effective Half-life, Kidneys ([1]; Patient 7): 27.9 h; Effective Half-life, Salivary Glands ([1]; Patient 7): 42.1 h; Biological Half-life, Tumours ([1]; Patient 7): 316.6 hours; Effective Half-life, Tumours ([1]; Patient 7): 106.1 h; Biological Half-life, Kidneys ([1]; Patient 8): 34.9 hours; Biological Half-life, Salivary Glands ([1]; Patient 8): 61.5 hours; Effective Half-life, Kidneys ([1]; Patient 8): 28.6 h; Effective Half-life, Salivary Glands ([1]; Patient 8): 44.4 h; Biological Half-life, Tumours ([1]; Patient 8): 611.3 hours; Effective Half-life, Tumours ([1]; Patient 8): 126.6 h; Biological Half-life, Kidneys ([1]; Patient 9): 32.3 hours; Biological Half-life, Salivary Glands ([1]; Patient 9): 47.7 hours; Effective Half-life, Kidneys ([1]; Patient 9): 26.8 h; Effective Half-life, Salivary Glands ([1]; Patient 9): 36.7 h; Biological Half-life, Tumours ([1]; Patient 9): 204.8 hours; Effective Half-life, Tumours ([1]; Patient 9): 89.7 h; Biological Half-life, Kidneys ([1]; Patient 10): 28.7 hours; Biological Half-life, Salivary Glands ([1]; Patient 10): 59.0 hours; Effective Half-life, Kidneys ([1]; Patient 10): 24.3 h; Effective Half-life, Salivary Glands ([1]; Patient 10): 43.1 h; Biological Half-life, Tumours ([1]; Patient 10): 170.2 hours; Effective Half-life, Tumours ([1]; Patient 10): 82.4 h; Biological Half-life, Kidneys ([1]; Patient 11): 35.3 hours; Biological Half-life, Salivary Glands ([1]; Patient 11): 61.7 hours; Effective Half-life, Kidneys ([1]; Patient 11): 28.9 h; Effective Half-life, Salivary Glands ([1]; Patient 11): 44.5 h; Biological Half-life, Tumours ([1]; Patient 11): 148.2 hours; Effective Half-life, Tumours ([1]; Patient 11): 76.8 h; Biological Half-life, Kidneys ([1]; Patient 12): 54.5 hours; Biological Half-life, Salivary Glands ([1]; Patient 12): 53.6 hours; Effective Half-life, Kidneys ([1]; Patient 12): 40.6 h; Effective Half-life, Salivary Glands ([1]; Patient 12): 40.1 h; Biological Half-life, Tumours ([1]; Patient 12): 152.4 hours; Effective Half-life, Tumours ([1]; Patient 12): 78.0 h; Biological Half-life, Kidneys ([1]; Patient 13): 31.6 hours; Biological Half-life, Salivary Glands ([1]; Patient 13): 57.8 hours; Effective Half-life, Kidneys ([1]; Patient 13): 26.4 h; Effective Half-life, Salivary Glands ([1]; Patient 13): 42.4 h; Biological Half-life, Tumours ([1]; Patient 13): 145.7 hours; Effective Half-life, Tumours ([1]; Patient 13): 76.2 h; Tumour absorbed dose lower than Cycle 1 value, on average ([2]; Cycle 2, 11 patients with multiple cycles): ~ 37% and 37%; Tumour absorbed dose lower than Cycle 1 value, on average ([2]; Cycle 3): ~ 56% and 56%; Maximum tumour absorbed dose, range across patients ([2]; activity method, Cycle 1): 2.00–25.7 Gy/GBq; Mean (SD) maximum tumour absorbed dose ([2]; activity method, Cycle 1): 8.87 Gy/GBq and 8.87 (6.71) Gy/GBq; Mean therapeutic index, ratio of tumour-to-kidney absorbed doses ([2]; activity method, Cycle 1): 32.1; Mean tumour-to-salivary gland absorbed dose ratio ([2]; activity method, Cycle 1): 73.2; Maximum tumour absorbed dose, range across patients ([2]; anatomy method, Cycle 1): 0.37–6.67 Gy/GBq; Mean (SD) maximum tumour absorbed dose ([2]; anatomy method, Cycle 1): 2.38 (1.78) Gy/GBq and 2.38 Gy/GBq
